Structures can show the parent of a compound that is named as a salt. Numbered stars: 1 amine (or outer) side, 2 acyl side, 3 side chain; on linkers, the order of the positions; unused ones are H or OH. Square brackets hold non-standard residues; d marks the D form. Peptide text beside a SMILES is read from it. X1 = NCCCC[C@H](N)CN([C@@H](CCCCN)C(=O)[*:2])[*:1]; Tle = CC(C)(C)[C@H](N)C(=O)O
Tests used:
[1] = system: CNTNAP2 knockout mouse model of autism; assay: Odor detection in novel background odors (go/no-go behavioral task), CNTNAP2 knockout mice; assay type: in vivo
Protocol: (§1) FIG. 1: Behavioral task used to test the effect of PD149163. Water-deprived, head-fixed mice were trained to identify target odors in the presence of background odors. […] If the target was the “go target” odors and the mouse licked, the mouse was rewarded with a small amount water. If the mouse wrongly licked the “no-go target” odors, no water was delivered and it was given a time out. After 10-13 days, mice performance exceeded 80%. The mice were then tested with the test set, that consisted of the same target odors but with novel background odors.
(§2) In order to test the effect of NTSR1 agonists, a novel behavioral task was used developed in the lab. In this task (see FIG. 1), water-deprived, head-fixed mice were trained to identify target odors in the presence of background odors. If the mouse responded to the go target odors, it was rewarded with water. If the mouse wrongly responded to the no-go target odors, no water was delivered and it experienced a time out. Chance performance was 0.5 and optimal performance was 1. After mice mastered this task (performance>0.8) with a set of known background odors after ˜10 days of training, the animals were tested with the same targets but in the presence of novel background odors. The performance of WT mice with novel background odors is above chance (0.74, 95% CI: 0.68-0.80, 3 WT mice).
This novel behavioral task was used to test the effects of the neurotensin receptor 1 agonists. The performances of both mouse models of autism without PD149163 (a peptide neurotensin receptor 1 agonist) were lower than the performance of the WT mice (SHANK3 haploinsufficiency: 0.62, 95% CI: 0.59-0.66, 6 mice, each mouse tested on 4 different days, CNTNAP2 knockout: 0.61, 95% CI: 0.56-0.65, 4 mice) (see FIG. 2). […] This dosage reversed the recognition deficit in novel environments shown by both mouse models of autism, with performance that matched the performance of the WT mice (SHANK3 haploinsufficiency: 0.81, 95% CI: 0.77-0.85, 6 mice, each mouse tested on 2 different days, CNTNAP2 knockout: 0.82, 95% CI: 0.77-0.86, 4 mice). […]

mice = assay: Lethargy side effect after injection; assay type: in vivo, mouse
[2] = system: SHANK3 haploinsufficiency mouse model of autism; assay: Odor detection in novel background odors (go/no-go behavioral task), SHANK3 haploinsufficiency mice; assay type: in vivo; conditions: 6 mice, 0.13 mg/kg subcutaneous in saline, 30 minutes before test, chance 0.5, optimal 1
Protocol: as §1
as §2, with “mice). […]” for “mice).”

[3] = system: SHANK3 and CNTNAP2 mouse models of autism; assay: Odor detection in novel background odors, both mouse models of autism pooled (dose response, duration); assay type: in vivo
Protocol: FIG. 3: Performance of odor detection in novel environments as a function of the dose of PD149163 injected subcutaneously using saline as vehicle. The bars represent the average performance for all 10 tested mice (four CNTNAP2 mice and six SHANK3 mice) at the three doses tested. The error bars are the 95% CI. The lines represent the performance for individual mice. The p values were calculated using paired t-test to compare the average performances of the 10 tested mice using the 0.13 mg/kg against the 0.065 mg/kg dose and the no drug condition.
as §2, with “mice). […]” for “mice).”

CCOC(=O)[C@H](CC(C)C)NC(=O)[C@@H](NC(=O)[C@H](Cc1c[nH]c2ccccc12)NC(=O)[C@@H]1CCCN1C(=O)[C@H](CCCCN)NC[C@@H](N)CCCCN)C(C)(C)C [PD149163, N2-[(2S)-2,6-Diaminohexyl]-L-lysyl-L-prolyl-L-tryptophyl-3-methyl-L-valyl-L-Leucine ethyl ester tetrahydrochloride hydrate] (H-[X1]PW[Tle]L-OEt)
Performance of odor detection with novel background odors ([1]; CNTNAP2 knockout male mice (2 mice, 2 sessions), 0.39 mg/kg in PEG400 (80 μg/ml), two subcutaneous injections 1 hour and 30 minutes before task): 0.76
Performance of odor detection with novel background odors ([1]; CNTNAP2 knockout male mice (2 mice, 5 sessions), 0.13 mg/kg subcutaneous in saline, 30 minutes before test): 0.54
Performance of odor detection with novel background odors ([1]; CNTNAP2 knockout, 4 mice, 0.13 mg/kg subcutaneous in saline, 30 minutes before test, chance 0.5, optimal 1): 0.82
Lethargy (mice; 0.26 mg/Kg subcutaneous, PEG400 as vehicle, 2 SHANK3 mice): no lethargy
Lethargy (mice; 0.26 mg/kg subcutaneous, saline as vehicle): produced lethargy
Lethargy (mice; therapeutic dose by intraperitoneal injection instead of subcutaneous): resulted also in lethargy
Performance of odor detection with novel background odors [2]: 0.81
Duration of drug effects on performance ([3]; 0.13 mg/kg subcutaneous in saline, returned to baseline the next day): less than 24 hours
Improvement of behavior (odor detection performance) ([3]; half dose 0.065 mg/kg subcutaneous, saline as vehicle): did not produce an improvement

Source: US12453757B2, “Method for ameliorating autism symptoms by pharmacological activation of the neurotensin receptor 1 (NTSR1)” (New York Institute of Technology, priority 2022, dated 2025)
